In patent US20190282616A1, “MACROPHAGES REDIRECT PHAGOCYTOSIS BY NON-PROFESSIONAL PHAGOCYTES AND INFLUENCE INFLAMMATION” (University of Virginia Patent Foundation, priority 2016, published 2019):

Tests used:
BEAS-2B cells [1] = test: Uptake of alveolar macrophage derived microvesicles by BEAS-2B cells; assay type: cell-based, human; conditions: IGF-1 100 ng/mL
Procedure: MH-S, mouse alveolar macrophages, or primary mouse alveolar macrophages were seeded. After adherence, the media was replaced with 0.22 μm filtered media to remove any contaminating microvesicles. After an overnight incubation, the supernatant was harvested and spun at 5000×g to remove cell debris and apoptotic bodies. The pellet was discarded and the resulting supernatant was filtered through 0.8 μm filter and spun again at 17,000×g. The pelleted microvesicles were then washed with HBSS and then spun again at 17,000×g. For engulfment assays, microvesicles were stained with TAMRA for 20 minutes and then added to BEAS-2B cells for 90 minutes. For flow cytometry, purified particles were stained with CD11c, Siglec F, and Annexin V (BD Biosciences, Cat. No. 550475) and processed on Imagestream™ imaging flow cytometer (Amnis). Microvesicle size distribution was characterized using qNano (IZON Science) with a NP400 membrane and at least 500 particles were counted. Microvesicles were prepared for cryo-electron microscopy using standard methods and imaged on an FEI TF20.

[2] = system: phosphatidylserine (PtdSer) on apoptotic thymocytes; test: Annexin V binding to apoptotic thymocytes; assay type: cell-based, mouse; conditions: n=6
[3] = system: bone marrow derived macrophages; test: Apoptotic cell engulfment by bone marrow derived macrophages; assay type: cell-based, mouse; conditions: even with supra-physiological concentrations of IGF-1
Procedure: To obtain bone-marrow derived macrophages, femurs were removed from 8 week old mice and flushed with 5 mL of sterile PBS containing 5% FBS. The cell suspension was centrifuged, treated with red blood cell lysis buffer, washed, and then plated onto sterile petri dishes in DMEM containing 10% L929 media, 10% FBS and 1% penicillin/streptomycin/glutamine (PSQ). Media was replenished every 2 to 3 days and differentiated cells were used at day 6 post-harvest. Resident peritoneal macrophages were obtained by flushing the peritoneal cavity of mice with 10 mL of cold PBS containing 5% FBS. Collected cells were spun down, resuspended in X-VIVO 10 (Lonza) and plated at a concentration of 3×10^5 cells per well in a 24 well plate for IGF-1 secretion assays, and 5×10^5 per well in a 24 well plate for engulfment assays. Floating cells were washed the next day and remaining peritoneal macrophages were used 2 days after isolation. Alveolar macrophages were isolated by flushing the lungs with 1 mL of cold PBS instilled intratracheally (five flushes). Collected cells were centrifuged, resuspended in F12K media containing 10% FBS and 1% PSQ, and seeded at 1×10^5 cells per well in a 48-well plate. All floating cells were washed away the next day and remaining cells were used in assays 2 days after isolation.

alveolar macrophages = test: In vivo engulfment assay: alveolar macrophages; design: species or system mouse; conditions: same IGF-1 treated mice
Procedure: CCSP-Cre/YFP mice were administered PBS or 1 μg of IGF-1 intranasally. One hour later, 100 million CypHer5E-labelled apoptotic thymocytes with or without IGF-I were injected intranasally for 3.5 hours. The BAL fluid was harvested and the lungs excised, minced, and digested into a single cell suspension. The cells were then stained with appropriate markers: CD11c and Siglec F for alveolar macrophage markers and EpCam (along with YFP expression) for airway epithelial cells and analyzed by flow cytometry to assess apoptotic cell uptake by the airway epithelial cells and the alveolar macrophages.

[4] = system: SVEC-40 endothelial cells; test: In vitro engulfment assay: apoptotic thymocyte uptake by SVEC-40 cells; assay type: cell-based, mouse; conditions: IGF-1 treatment
Procedure: (§1) LR73, SVEC-40, BEAS-2B, and 16HBE14o-cells were seeded in a 24 well plate. Thymocytes were isolated from 4-6 week old mice and induced to undergo apoptosis with dexamethasone. Thymocytes or prepared microvesicles were then stained with either CypHer5E (GE Healthcare, PA15401) or TAMRA (Invitrogen, C-1171). LR73 and SVEC-40 cells were incubated with apoptotic thymocytes at a 1:10 phagocyte to target ratio, BEAS-2B at a 1:5 phagocyte to target ratio, and 16HBE14o—at a 1:20 phagocyte to target ratio for 2 hours. Mouse IGF-I (Sigma-Aldrich), human IGF-I (Sigma-Aldrich), human IGF-II (Sigma-Aldrich) were added to the phagocytes at the same time as addition of apoptotic targets. For IGFBP3 studies, IGFBP3 (Sigma-Aldrich) was added to media or supernatant from J774 cells for one hour to allow IGFBP3 to bind to any available IGF-I, then the mix is added to phagocytes along with apoptotic targets. […] Targets were then washed off three times with PBS, and the cells were dissociated from the plate with trypsin and the engulfment assessed by flow cytometry.

BEAS-2B cells [5] = test: In vitro engulfment assay: apoptotic cell uptake by BEAS-2B cells; assay type: cell-based; conditions: human IGF-I
Procedure: as §1

[6] = system: IGF-1R, Akt and Erk1/2 phosphorylation in LR73 cells; test: Immunoblotting of signaling in LR73 cells; assay type: cell-based, hamster; conditions: LR73 cells, IGF-1 treatment
Procedure: LR73, J774, or BEAS-2B cells were seeded in a 60 mm dish at a concentration of 5×10^5. […] Cells were lysed in RIPA buffer and used in Western blots. The blots were probed for phospho-Erk1/2 (Cell Signaling Technology, #4370), phospho-Akt (Cell Signaling Technology, #4060), phospho-IGF-1R (Cell Signaling, #3024), total Erk2 (Santa Cruz Biotechnology, #sc-154-G), total Akt (Cell Signaling Technology, #4691), total IGF-1R (Cell Signaling, #9750), and anti-B-actin-HRP (Sigma-Aldrich, #A3854) followed by chemiluminescence detection.

insulin-like growth factor I [IGF-1]
uptake of microvesicles by BEAS-2B airway epithelial cells (BEAS-2B cells [1]): enhanced by IGF-1 | masking of phosphatidylserine on apoptotic cells (Annexin V binding) [2]: not due to masking phosphatidylserine | corpse uptake by bone marrow-derived macrophages [3]: did not affect corpse uptake | engulfment of apoptotic cells or liposomes by lung macrophages in vivo (alveolar macrophages): unaffected in their ability to engulf these targets | apoptotic thymocyte uptake by SVEC-40 cells [4]: engulfment dampening effect of IGF-1 was also seen | apoptotic cell uptake by BEAS-2B cells (BEAS-2B cells [5]): engulfment dampening effect of IGF-1 was also seen | phosphorylation of Akt [6]: elicited phosphorylation of Akt
